Assay results: PubChem BioAssay (NCI)
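Five compound concentrations were applied to cells in 96-well plates for 48 hours; endpoints were derived by simple linear interpolation of the resulting dose-response curve. TGI is the concentration that stops growth completely.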

Tests used:
Experiment in all cases: NCI tumour cell line growth inhibition, 48 h
[1] = tested on: CCRF-CEM leukemia
[2] = tested on: COLO 205 colon
[3] = tested on: HCT-116 colon
[4] = tested on: HL-60(TB) leukemia
[5] = tested on: IGROV1 ovarian
[6] = tested on: K-562 leukemia
[7] = tested on: LOX IMVI melanoma
[8] = tested on: NCI-H226 lung
[9] = tested on: NCI-H460 lung
[10] = tested on: OVCAR-3 ovarian
[11] = tested on: OVCAR-4 ovarian
[12] = tested on: OVCAR-8 ovarian
[13] = tested on: SF-268 CNS
[14] = tested on: SF-295 CNS
[15] = tested on: SK-MEL-28 melanoma
[16] = tested on: A498 renal
[17] = tested on: MCF7 breast
[18] = tested on: MDA-MB-435
[19] = tested on: HS 578T breast
[20] = tested on: MDA-N

Row | SMILES | TGI [1] [µM] | TGI [2] [µM] | TGI [3] [µM] | TGI [4] [µM] | TGI [5] [µM] | TGI [6] [µM] | TGI [7] [µM] | TGI [8] [µM] | TGI [9] [µM] | TGI [10] [µM] | TGI [11] [µM] | TGI [12] [µM] | TGI [13] [µM] | TGI [14] [µM] | TGI [15] [µM] | TGI [16] [µM] | TGI [17] [µM] | TGI [18] [µM] | TGI [19] [µM] | TGI [20] [µM]
1 | CCOc1ccc(/C(Cl)=C(\C=O)c2ccc(OC)c(OC)c2)cc1OCC | > 100 | > 100 | > 100 | 62.7 | > 100 | > 100 | > 100 | > 100 | > 100 | > 100 | > 100 | > 100 | > 100 | > 100 | > 100 | – | – | – | – | –
2 | CC(C)CC(NC(=O)OC(C)(C)C)C(=O)Nc1ccc(Nc2nc(F)nc(-c3c4ccccc4c4n3CCS4)n2)cc1 (centres undefined) | 16.9 | 33.3 | 46 | 46.5 | 42.3 | 57.8 | – | – | 36.5 | 36.7 | – | 38.3 | 61.3 | 35.9 | 42.7 | 45.8 | – | – | – | –
3 | COc1ccc(CNC(=O)NCn2cc(-c3ccccc3)nn2)cc1 | > 100 | > 100 | > 100 | > 100 | > 100 | > 100 | > 100 | – | > 100 | – | > 100 | > 100 | > 100 | > 100 | > 100 | – | > 100 | > 100 | – | –
4 | Cc1ccc([N+](=O)[O-])cc1NC(=O)/C(=N/NC(=S)NN)C1SC(=S)NC1=O (centres undefined) | > 100 | > 100 | > 100 | > 100 | > 100 | > 100 | > 100 | > 100 | > 100 | – | > 100 | > 100 | > 100 | > 100 | > 100 | > 100 | – | – | – | –
5 | Nc1nc(SCc2ccc([N+](=O)[O-])cc2)nc2c1ncn2C1OC(CO)C(O)C1O (centres undefined) | > 100 | > 100 | > 100 | > 100 | > 100 | > 100 | > 100 | > 100 | > 100 | > 100 | > 100 | > 100 | > 100 | > 100 | > 100 | > 100 | – | – | – | –
6 | O=C1c2ccccc2OP(=O)(OCC(F)(F)F)OC1(C(F)(F)F)C(F)(F)F (centres undefined) | > 100 | > 100 | > 100 | > 100 | > 100 | > 100 | > 100 | > 100 | > 100 | – | > 100 | > 100 | > 100 | > 100 | > 100 | > 100 | – | – | – | –
7 | Cc1cc(N(CCC#N)CCC#N)ccc1/C(N=Nc1ccc(C(=O)O)cc1)=N\NC(=O)c1cc(Cl)ccc1O | > 100 | > 100 | > 100 | – | 59 | > 100 | – | 49.9 | > 100 | > 100 | 97 | 93.1 | 42.3 | 34.7 | – | 87.7 | > 100 | > 100 | 47.1 | –
8 | COc1ccc(N=Cc2ccc(N(CCC#N)S(=O)(=O)c3ccccc3)cc2)cc1 | > 100 | > 100 | > 100 | > 100 | > 100 | > 100 | > 100 | > 100 | > 100 | > 100 | > 100 | > 100 | > 100 | > 100 | > 100 | > 100 | – | – | – | –
9 | CCCCc1ccc(Nc2nc(SC)c3[nH]cnc3n2)cc1 | 12.3 | > 100 | > 100 | > 46.4 | > 100 | > 31.3 | > 100 | > 100 | > 100 | > 93.5 | > 100 | > 100 | > 100 | > 100 | > 100 | > 78.5 | > 100 | > 100 | > 100 | –
10 | Cn1c(O)c(C=Nc2ccccc2[N+](=O)[O-])c(=O)n(C)c1=O | > 100 | > 100 | > 100 | – | > 100 | > 100 | > 100 | > 100 | > 100 | > 100 | > 100 | > 100 | > 100 | > 100 | – | > 100 | – | > 100 | > 100 | > 100
11 | COc1cc2c(cc1OCCCCN1C(=O)c3cccc4cccc(c34)C1=O)N=C[C@@H]1CCCN1C2=O | 5.08 | 8.21 | 14 | – | 6.01 | > 100 | > 100 | 23.5 | 14.4 | 10.4 | 18.3 | 82.8 | > 100 | 45.8 | 38.2 | 13.9 | 22.4 | > 35.6 | – | –
12 | CC1=NN(c2nc(N)nc(CSc3nc4n(c(=S)n3)CCN4)n2)C(C)(C)C1 | > 100 | > 100 | > 100 | > 100 | 51.5 | > 100 | > 100 | 53.1 | > 100 | – | > 100 | 47.3 | 35.2 | 74 | > 100 | > 100 | > 100 | > 100 | 41.3 | –
13 | Cc1ccc(N2C(=O)CS/C2=C(\C#N)c2nc3ccccc3[nH]2)cc1 | > 100 | > 100 | > 100 | > 100 | > 100 | > 100 | > 100 | > 100 | > 100 | > 100 | > 100 | > 100 | > 100 | – | > 100 | > 100 | – | – | – | –
14 | CC[C@]1(Cc2ccc(OC)c(OC)c2)C=[N+]([O-])O[C@H](OC2CCCC2(c2ccccc2)c2ccccc2)[C@@H]1OC(C)=O (some centres undefined) | > 100 | 12 | 6.16 | 18.8 | 10.6 | > 27.7 | 6.47 | – | 20.7 | 4.13 | 25.5 | 7.98 | 11.4 | 17.5 | 4.81 | – | 8 | 7 | 46.5 | –
